Results on six compounds are retold here after ChEMBL document CHEMBL1201862, “PubChem BioAssay data set” (2004).

Active and inactive are the calls of the source.

In assay [1] the test system is HEK293. The assay is described as follows: cells. To be noted: Homo sapiens.
In assay [2] the test system is HEK293. The assay can be described thus: cells. To be noted: Homo sapiens. The source holds these as a separate data set.
The nature of assay [3]: Counterscreen for activators of the function of SWI/SNF related, matrix associated, actin dependent regulator of chromatin, subfamily a, member 2 (SMARCA2, BRM): Luminescence-based cell-based high throughput dose response assay to identify non-selective compounds using the VP16 reporter assay. It is filed as functional.
The target in assay [4] is T1, DNA repair protein RAD52 homolog (Homo sapiens, UniProt P43351).
T1 sequence (P43351 whole entry): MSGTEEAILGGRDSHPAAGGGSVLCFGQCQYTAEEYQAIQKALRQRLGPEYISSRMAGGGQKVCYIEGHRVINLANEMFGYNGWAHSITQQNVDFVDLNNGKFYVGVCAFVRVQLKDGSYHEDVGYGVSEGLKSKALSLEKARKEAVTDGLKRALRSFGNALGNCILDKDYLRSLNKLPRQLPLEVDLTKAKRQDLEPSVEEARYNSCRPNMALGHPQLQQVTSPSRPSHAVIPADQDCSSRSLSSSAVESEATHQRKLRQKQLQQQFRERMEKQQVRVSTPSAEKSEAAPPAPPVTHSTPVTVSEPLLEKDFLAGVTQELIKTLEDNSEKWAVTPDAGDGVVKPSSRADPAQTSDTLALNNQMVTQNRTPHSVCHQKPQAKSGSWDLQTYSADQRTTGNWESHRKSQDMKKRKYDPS
The format is functional, biochemical.

For assay [5], the target named is SWI/SNF-related matrix-associated actin-dependent regulator of chromatin subfamily A member 2 (Homo sapiens, UniProt P51531). The assay is described as follows: Luminescence-based cell-based high throughput dose response assay to identify activators of the function of SWI/SNF related, matrix associated, actin dependent regulator of chromatin, subfamily a, member 2 (SMARCA2, BRM). It is filed as functional.
SWI/SNF-related matrix-associated actin-dependent regulator of chromatin subfamily A member 2, sequence (P51531 whole entry): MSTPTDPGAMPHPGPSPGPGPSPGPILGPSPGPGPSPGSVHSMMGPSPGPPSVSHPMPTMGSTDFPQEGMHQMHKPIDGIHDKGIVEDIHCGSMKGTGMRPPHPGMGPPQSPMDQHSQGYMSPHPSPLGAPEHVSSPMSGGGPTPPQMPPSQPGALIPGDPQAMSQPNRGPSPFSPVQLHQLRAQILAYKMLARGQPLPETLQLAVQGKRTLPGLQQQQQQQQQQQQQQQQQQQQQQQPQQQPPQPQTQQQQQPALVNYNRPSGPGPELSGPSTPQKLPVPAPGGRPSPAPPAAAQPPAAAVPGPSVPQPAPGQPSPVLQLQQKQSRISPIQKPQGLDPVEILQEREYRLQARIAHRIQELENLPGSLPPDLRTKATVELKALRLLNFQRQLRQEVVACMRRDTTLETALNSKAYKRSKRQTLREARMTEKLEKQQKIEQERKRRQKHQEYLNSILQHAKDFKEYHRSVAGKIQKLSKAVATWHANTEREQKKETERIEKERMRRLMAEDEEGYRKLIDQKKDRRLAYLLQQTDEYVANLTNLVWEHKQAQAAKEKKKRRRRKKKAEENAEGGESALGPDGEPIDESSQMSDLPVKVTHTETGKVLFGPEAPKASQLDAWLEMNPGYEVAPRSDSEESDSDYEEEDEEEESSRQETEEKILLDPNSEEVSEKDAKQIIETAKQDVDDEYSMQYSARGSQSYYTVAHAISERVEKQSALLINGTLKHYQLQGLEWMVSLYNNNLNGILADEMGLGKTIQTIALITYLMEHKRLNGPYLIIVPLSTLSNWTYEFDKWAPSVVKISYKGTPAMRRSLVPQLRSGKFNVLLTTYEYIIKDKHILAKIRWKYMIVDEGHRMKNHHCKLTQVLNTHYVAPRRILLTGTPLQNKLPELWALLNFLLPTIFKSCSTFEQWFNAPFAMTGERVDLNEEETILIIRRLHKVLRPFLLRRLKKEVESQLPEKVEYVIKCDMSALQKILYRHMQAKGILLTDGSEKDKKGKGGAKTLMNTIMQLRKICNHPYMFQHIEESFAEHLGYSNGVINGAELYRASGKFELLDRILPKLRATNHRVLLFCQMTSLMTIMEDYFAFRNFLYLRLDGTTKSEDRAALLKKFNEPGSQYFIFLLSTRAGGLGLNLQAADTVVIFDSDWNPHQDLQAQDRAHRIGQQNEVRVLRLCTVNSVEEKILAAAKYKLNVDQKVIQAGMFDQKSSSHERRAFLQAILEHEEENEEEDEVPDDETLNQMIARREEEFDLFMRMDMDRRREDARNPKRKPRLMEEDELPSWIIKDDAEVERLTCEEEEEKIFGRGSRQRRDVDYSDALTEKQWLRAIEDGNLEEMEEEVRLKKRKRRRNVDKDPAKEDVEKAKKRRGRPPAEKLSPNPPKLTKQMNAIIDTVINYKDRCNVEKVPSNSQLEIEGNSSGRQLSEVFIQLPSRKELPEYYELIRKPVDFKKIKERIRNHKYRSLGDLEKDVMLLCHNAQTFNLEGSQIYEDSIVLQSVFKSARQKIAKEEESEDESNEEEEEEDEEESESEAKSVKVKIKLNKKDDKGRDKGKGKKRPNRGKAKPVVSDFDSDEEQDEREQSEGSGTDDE

Assay [6] addresses T2, Mitochondrial peptide methionine sulfoxide reductase (Bos taurus, UniProt P54149).
T2 sequence (P54149 whole entry): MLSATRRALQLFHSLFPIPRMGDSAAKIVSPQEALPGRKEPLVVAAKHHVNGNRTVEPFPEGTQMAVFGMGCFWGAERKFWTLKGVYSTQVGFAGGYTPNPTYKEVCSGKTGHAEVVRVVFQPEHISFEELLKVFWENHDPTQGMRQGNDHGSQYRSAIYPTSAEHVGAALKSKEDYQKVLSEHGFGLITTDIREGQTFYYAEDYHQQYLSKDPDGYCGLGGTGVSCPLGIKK
The assay can be described thus: Absorbance-based biochemical high throughput dose response assay for activators of Methionine sulfoxide reductase A (MsrA). It is filed as functional.

Assay [7] in a line: human group III sPLA2 inhibitors, dose response, biochemical, QFRET, IC50 (AID 743457).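 Also: green fluorescence rise as the enzyme cleaves BODIPY PC-A2 in liposomes; potency for inhibition of the enzyme.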
Assay [8] can be described thus: HepG2 cell cytotoxicity, dose response, cytotoxicity control, cherry-picks, set 5 (AID 1053118). The format is functional, cell-based.
Assay [9] in a line: intracellular Trypanosoma cruzi inhibitors in host cells – cell-based, plate reader, cherry-pick samples, set 3, dose response (AID 651818).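 Also: compounds incubated with infected cells for about four days.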 The format is functional.
Assay [10] in a line: HEK293 cell cytotoxicity, dose response, cytotoxicity control, cherry-picks, set 5 (AID 1053117). The format is functional, cell-based.
Assay [11] in a line: A549 cell cytotoxicity, dose response, cytotoxicity control, cherry-picks, 26 µM top dose (AID 1053119). The format is functional, cell-based.
The nature of assay [12]: NIH/3T3 fibroblast cytotoxicity, dose response, cytotoxicity control for T. cruzi growth inhibitor project, cell-based, cherry-pick samples, set 2 (AID 651817). The format is functional. As to conditions: NIH3T3.
Assay [13] is described as follows: inhibitors of TNFa-stimulated NF-kB luciferase reporter, dose response, selectivity assay for EBV LMP1 NF-kB inhibitor project, HEK293 LMP1 reporter cells, dry powder, set 2 (AID 624369). It is filed as functional. A general note: In a reporter assay the amount or activity of a reporter protein is the signal.
Assay [14] in a line: LMP1-driven NF-kB reporter inhibition, dose response, cell-based, luciferase reporter, luminescence, dry powder, set 2 (AID 624376). The format is functional.
Assay [15] in a line: LGR2 antagonists, dose response, cell-based, HEK293, CRE-luciferase reporter, cherry pick (AID 743342). The format is functional.
Assay [16] is described as follows: MC4R antagonists, dose response, counter-screen for LGR2 antagonist project, cell-based, plate reader, cherry pick (AID 743444).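 Also: transfected HEK 293 cells stimulated with alpha-MSH peptide; potency of inhibitors of the alpha-MSH evoked signal.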 The format is functional. A general note: Counterscreens check selectivity or assay interference.
Assay [17] in a line: A549 cell cytotoxicity, dose response, cytotoxicity control, plate reader, cherry-pick, antagonist series (AID 743412). It is filed as functional, cell-based.

Turning to `COc1ccc(OC)c2nc3c(C(=O)NCCN(C)C)cccc3nc12`, the EC50 (as a rule, the concentration at which the effect is half-maximal) in [1] is > 59.7 µM (inactive); in assay [2], > 6.63 µM (active); in assay [3], > 91.1 µM (inactive); in assay [5], 10.2 µM (inactive); in [6], 46.5 µM (inactive). Also, the AC50 (usually the concentration at which the activity in the assay is half-maximal) in [4] was 0.59 µM (active).

As to `Sc1nnc(COc2ccccc2)n1-c1ccc(Cl)cc1`, the IC50 (usually the concentration needed to halve the response being measured) in [7] was > 122 µM (inactive).

Turning to `C[C@H]1CN([C@@H](C)CO)C(=O)c2cccc(NC(=O)Nc3ccc(C(F)(F)F)cc3)c2O[C@@H]1CN(C)C(=O)Nc1cccc2ccccc12`, the AC50 in assay [8] was 25 µM (active); in [9], 4.5 µM (active); in assay [10], 19.8 µM (active); in assay [11] it was 29.7 µM (active).

As to `C[C@H]1CN([C@@H](C)CO)C(=O)c2cccc(NC(=O)Nc3ccc(C(F)(F)F)cc3)c2O[C@H]1CN(C)Cc1ccc(Cl)c(Cl)c1`, the half-maximal activity concentration (AC50) in [12] was 13.6 µM (active).

As for `COc1ccc(S(=O)(=O)N(C)C[C@@H]2Oc3ncc(/C=C/c4ccccc4)cc3C(=O)N([C@@H](C)CO)C[C@H]2C)cc1`, the AbsAC35 is 77.19 µM in assay [13] and 47.67 µM in assay [14].

As to `C[C@H](CO)N1C[C@H](C)[C@H](CN(C)C(=O)Nc2cccc3ccccc23)OCCCC[C@H](C)Oc2ccc(NC(=O)CCC(F)(F)F)cc2C1=O`, the results for the AC50 in [15], in assay [16] and in [17] were 4.02 µM (active), 2.95 µM (active) and 35 µM (active), respectively.
